Measurements published in US10272086B2 (CHANG GUNG MEMORIAL HOSPITAL, LINKOU, priority 2013, dated 2019).

What was measured:
[1] = test system: PSA (prostate specific antigen) protein expression; experiment: Western blot of AR regulated PSA protein expression in LNCaP cells; type: cell-based, human; details: 10^−3˜10^−5 M Minoxidil, 24 h
Protocol: The cells were prepared for electrophoresis on SDS/PAGE gel and then transferred onto nitrocellulose (Minipore, Billerica, USA). AR, PSA and beta-actin proteins were identified using anti-AR (N-20 from Santa Cruz Biotechnology, Santa Cruz, USA), anti-PSA (C-19 from Santa Cruz Biotechnology, Santa Cruz, USA), or […] (MAB1501 from Millipore, Billerica, USA) respectively. Images were shown using alkaline phosphatase substrate color kit (Bio-Rad, Hercules, USA).

[2] = target: T1, glucocorticoid receptor (GR) (Homo sapiens, UniProt P04150); experiment: Glucocorticoid receptor transcriptional activity reporter assay in PC-3 cells (control study); type: cell-based
T1 construct: host or cells: PC-3
T1 sequence (P04150 1-777): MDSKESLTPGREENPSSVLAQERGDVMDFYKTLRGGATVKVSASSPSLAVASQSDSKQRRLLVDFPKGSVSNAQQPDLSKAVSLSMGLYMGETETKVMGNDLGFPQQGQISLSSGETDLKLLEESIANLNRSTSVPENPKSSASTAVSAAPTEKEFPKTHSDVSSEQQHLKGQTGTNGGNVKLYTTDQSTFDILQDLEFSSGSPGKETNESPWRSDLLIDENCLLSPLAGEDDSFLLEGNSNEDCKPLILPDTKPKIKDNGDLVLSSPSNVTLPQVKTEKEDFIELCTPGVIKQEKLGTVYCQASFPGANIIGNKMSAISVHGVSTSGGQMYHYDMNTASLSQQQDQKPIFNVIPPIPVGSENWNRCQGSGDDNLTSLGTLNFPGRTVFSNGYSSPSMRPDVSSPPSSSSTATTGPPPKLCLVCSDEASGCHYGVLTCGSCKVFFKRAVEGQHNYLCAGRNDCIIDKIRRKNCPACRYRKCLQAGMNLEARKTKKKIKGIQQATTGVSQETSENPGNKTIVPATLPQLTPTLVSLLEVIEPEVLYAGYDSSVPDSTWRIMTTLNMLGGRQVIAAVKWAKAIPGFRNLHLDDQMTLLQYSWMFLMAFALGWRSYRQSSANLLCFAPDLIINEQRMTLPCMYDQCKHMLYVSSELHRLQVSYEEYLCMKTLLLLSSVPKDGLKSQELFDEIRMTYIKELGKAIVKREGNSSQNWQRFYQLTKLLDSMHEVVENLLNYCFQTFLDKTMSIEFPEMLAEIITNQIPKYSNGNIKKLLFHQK

[3] = Topical Minoxidil on forehead acne in a patient, 7-day course; type: in vivo, human
Protocol: An in vivo evaluation of topical Minoxidil on acne was carried out in a patient. […] In addition, there was less new […] formation on the left (treated) forehead compared to the right (untreated) forehead.

[4] = Topical 5% Minoxidil on an acne on a patient's face, two applications; type: in vivo, human
[5] = Double-blind clinical trial of topical Minoxidil versus placebo in patients with acne; type: in vivo, human
Protocol: A double-blind clinical trial is conducted, in which topical Minoxidil and placebo are administered to patients with acne.

Nc1cc(N2CCCCC2)nc(N)[n+]1[O-] [Minoxidil, 6-piperidin-1-ylpyrimidine-2,4-diamine 3-oxide]
AR regulated PSA protein expression [1]: effective in inhibiting AR regulated PSA protein expression in the presence of DHT, in a dose dependent manner
GR transcriptional activity ([2]; highest concentration 100 μM): did affect GR transcriptional activity
GR transcriptional activity ([2]; lower concentrations 1-10 μM): did not
New pimple formation, treated versus untreated forehead ([3]; 5% Minoxidil solution, topical, once a day for 7 days): less new pimple formation on the left (treated) forehead
Pimples on treated forehead ([3]; 5% Minoxidil solution, topical, once a day for 7 days, left forehead treated, right forehead control): disappearance of pimples on the left (treated) forehead
Healing time of acne ([3]; 5% topical Minoxidil, 7-day course): faster healing time
Erythema and swelling around the acne ([4]; 5% Minoxidil, topical, after two applications): significant reduction in erythema and swelling around the acne
Efficacy in treating acne ([4]; 5% topical Minoxidil, 48-hour period): effective in treating acne
Symptoms and signs of acne in comparison with the placebo group [5]: statistically significant reduction in the symptoms and signs of acne
